This note sets out measurements from patent publication US11661439B2, “Peptide hydrogels and use thereof” (The United States of America, as represented by the …, priority 2017, dated 2023).

Data set [1] has as its system human dermal fibroblasts (HDFs). Nature of the data set: 3D cell encapsulation culture of HDFs in gels. The format is cell-based. As for the experimental part: 3D cell culture in peptide gels. Peptides were initially dissolved in 285 mM sucrose at 1 wt % on ice and mixed with an equal volume of cell suspension in serum-free HEPES-supplemented DMEM (2×10^6 cells mL^−1). The cell-peptide suspension (5×10^4 cells per 50 μL per insert) was transferred to a Falcon cell culture insert (for 24-well plates, 8 μm pore size, Corning) and incubated at 37° C. for 30 min for gelation. These inserts were previously coated with the empty hydrogel (30 μL per insert) to avoid cell adhesion to the bottom surface of the inserts. After gelation of cell-peptide solution, 500 μL of Essential 8 Medium were added to the top and bottom of the gels. Type I collagen gels were prepared following manufacturer's instructions. Briefly, a 0.4 wt % collagen solution was prepared on ice and mixed with cell suspension in serum-free DMEM (4×10^6 cells mL^−1) at a ratio of 3:1 (0.3 wt % collagen, 1×10^6 cells mL^−1).
Cell viability assay. Cell viability was evaluated by live and dead cell staining after 2D and 3D cell culture. Serum-free DMEM containing 1 μM calcein-AM and 2 μM ethidium homodimer-1 was added to the cells (200 μL per well for 2D culture and 500 μL each to the top and bottom of the gels for 3D culture). After incubation at 37° C. for 30 min, live and dead cells were visualized using EVOS FL Auto Cell Imaging System (Thermo Fisher Scientific). For the pseudo-colored composite image of varying heights of encapsulated cells, images of the live-stained cells were captured every 5 μm of height. Then Z-stack images for each 100 μm were flattened using the EVOS software, and the flattened images were pseudo-colored and merged using ImageJ.
Cell proliferation assay. A cell proliferation assay was performed using Cell Counting Kit-8 (CCK-8, Dojindo Molecular Technologies) for 2D and 3D cell culture. […] Subsequently, media were transferred to 96-well plates (150 μL per well) and their absorbance measured at 450 nm relative to control viabilities from day 0 for 2D cell culture and day 1 for 3D cell culture. […]

A short description of data set [2]: Rheology of cell-encapsulating gels after 4 days of 3D culture. It is filed as physicochemical. Particulars: 1000% strain for 30 s every 10 min. An excerpt:
FIGS. 7A-7E. Three-dimensional culturing of HDFs. HDFs were 3D cultured with 0.5 wt % peptide hydrogels or 0.3 wt % collagen hydrogels with Essential 8 Medium. (7A) Live and dead cells were visualized on days 1, 4, and 7, using calcein AM and ethidium homodimer-1 staining, respectively (scale bar=100 μm). (7B) Cell growth was monitored by quantifying cell viability on days 1, 4, and 7. Data are represented as mean±SD of three independent replicates. (7C) A pseudo-colored composite of varying depths (0-500 μm) of Z-stacked images of live cells stained with calcein AM in 0.5% AcVES3-RGDV hydrogels on day 4 (scale bar=100 μm). […] (7D) Z-stack image of cytoskeleton organization in the hydrogels on day 4 with actin and nuclei (scale bar=100 μm) stained. (7E) Shear-thinned recovery of cells encapsulated in 0.5 wt % AcVES3-RGDV hydrogel after 3D culturing for 4 days. Hydrogels were shear-thinned at 1000% strain for 30 s (indicated by dashed line) every 10 min and allowed to recover by reducing the strain to 0.2%.
Rheology measurements of cell-encapsulating gels after 4 days of 3D cell culturing were performed using 8-mm stainless steel parallel plate geometry with a 0.5 mm gap height. A cell-encapsulating gel (100 μL) in a transwell insert (for 24 well plates, Corning) was transferred to the rheometer plate previously equilibrated at 37° C. and oil was placed around the sample. […]

Data set [3] is described as follows: TEM analysis of peptide fibrils. The format is physicochemical. The settings on record: 30 independent measurements. Here is the method:
FIG. 4. Fibril visualization of β-hairpin peptide hydrogels. Transmission Electron Microscopy (TEM) images of peptide fibrils and frequency distributions determined from 30 independent measurements (scale bar=100 nm).
Transmission electron microscopy (TEM) analysis. The hydrogel nanostructure of the peptide gels was observed using a Hitachi H-7650 transmission electron microscope at a voltage of 80 kV. A 1 wt % solution of peptide and an equal volume of buffer (50 mM HEPES containing 300 mM NaCl, pH 7.4) was mixed and incubated overnight at 37° C. to allow for gelation. The next day, samples for TEM analysis were prepared by suspending 5 μL of the resulting peptide gel in 195 μL of water to yield a 40-fold dilution. Small amounts (5 μL) of each diluted gel solution were applied to separate carbon coated copper grids. After 1 min, the grid was washed with water. Then, a 1 w/v % uranyl acetate aqueous solution was placed on each grid for negative staining. Excess staining solution was blotted away, left to air dry, and the grids were imaged immediately.

Molecules are shown by their SMILES. Non-standard residues stand in square brackets, D forms with d. Residues, ends and D or L forms follow the SMILES beside them.

For `CC(=O)N[C@H](C(=O)N[C@@H](CCC(=O)O)C(=O)N[C@H](C(=O)N[C@@H](CO)C(=O)N[C@H](C(=O)N[C@@H](CO)C(=O)N[C@H](C(=O)N[C@@H](CCC(=O)O)C(=O)N[C@H](C(=O)N1CCC[C@@H]1C(=O)N1CCC[C@H]1C(=O)N[C@H](C(=O)N[C@@H](CCC(=O)O)C(=O)N[C@H](C(=O)N[C@@H](CO)C(=O)N[C@H](C(=O)N[C@@H](CCC(=O)O)C(=O)N[C@H](C(=O)N[C@@H](CCC(=O)O)C(=O)N[C@H](C(=O)NCC(=O)NCC(=O)NCC(=O)NCC(=O)N[C@@H](CCCNC(=N)N)C(=O)NCC(=O)N[C@@H](CC(=O)O)C(=O)N[C@H](C(N)=O)C(C)C)C(C)C)C(C)C)C(C)C)C(C)C)[C@@H](C)O)C(C)C)C(C)C)C(C)C)C(C)C)C(C)C` [AcVES3-RGDV] (Ac-VEVSVSVEV[dP]PTEVSVEVEVGGGGRGDV-NH2), the “cell proliferation rate relative to the collagen gel” value in data set [1] (3D culture, Essential 8 Medium) was 2-3 fold. Further, in data set [1] (Essential 8 Medium, one week), the “cell proliferation of encapsulated HDFs, 3D culture” value was “proliferated well with minimal cell death”. Moreover, the “distribution of encapsulated cells in the gel” value in data set [1] (day 4, heights 0-500 μm) is “homogenously distributed throughout the gel matrix”. Further, the “storage moduli after multiple physical disruptions” value in data set [2] is reported as “constant”. The compound further yielded an average fibril width in data set [3] of 4.0±0.4 nm.
